Reference: patent US8367815B2, “Modular polynucleotides for ligand-controlled regulatory systems” (California Institute of Technology, priority 2007, dated 2013)

Test system: EGFP
Details: for Basal expression levels (%): GFP(%): median green fluorescence of transfected vs untransfected cells in same well, without ligand, HEK293T tTA-d2EGFP; for η (dynamic range): ratio of GFP(%) at high (3 mM) and low (1 μM) theophylline concentrations
Protocol: The functionality of shRNA switches was assessed in mammalian cell culture. Applicants transiently transfected plasmids harboring S1 and various switch controls transcribed from a U6 promoter into HEK293T cells stably expressing EGFP (Abbas-Terki et al, 2002).
In this example, Applicants systematically evaluated the tuning capabilities of shRNA switches with the aid of a mathematical model relating ligand concentration and target gene expression levels. Standard model parameters were incorporated to represent each chemical step from the proposed mechanism (Example 7). […] These assumptions yield the following relationship between relative expression levels of the target gene (f; output) and exogenous ligand concentration (L; input): f=1−e·fshRNA[1+KComp(1+KApt·L)]^−h, (1)
The power of this model lies in the ability to calculate realistic parameter values from a minimal set of experiments: fshRNA can be found in one experiment by measuring the relative knockdown of the target gene induced by an shRNA that contributes the shRNA stem, e can be calculated from basal expression levels from a few shRNA switches that strongly prefer the active conformation, and h can be calculated by generating a ligand response curve with one shRNA switch—as long as administration of the highest ligand concentration results in negligible knockdown of the target gene. The remaining model parameters, KComp and KApt, can be found from the same response curve used to calculate […], since varying KApt only changes the EC50 while varying KComp changes both EC50 and basal expression levels. A summary of the model parameters and how values are experimentally obtained are included in Table III below.
To investigate the validity of the model, Applicants experimentally determined model parameter values as described above: fshRNA was equated to the knockdown achieved with the original shRNA targeting EGFP (sh); e was calculated from the average basal expression levels produced by shRNA switches S5, S7, S9, and S10; and KComp, KApt, and h were determined by a model fit of the theophylline response curve for S1. […] The EC50 is related to KApt and KComp according to the following: EC50=(1+KComp^−1)KApt^−1, (4)
Cell culture and transfection. All cells were maintained at 37° C. in a 5% CO2-humidified incubator. HEK293T, HEK293, HeLa, and HEK293T tTA-d2EGFP cells were maintained in minimal essential medium (MEM) alpha media (Invitrogen) supplemented with 10% fetal bovine serum (FBS) (Invitrogen), whereas MDA-MB-231 cells were maintained in RMPI 1640 with glutamine (Invitrogen) supplemented with 10% FBS. Cells were transfected one day after seeding using Fugene 6 (Roche) according to the manufacturer's instructions, followed by the immediate addition of ligand. HEK293T tTA-d2EGFP were transfected with shRNA vector (250 ng), whereas cells lacking endogenous GFP were cotransfected with shRNA vector (250 ng) and the pcDNA3.1(+) (Invitrogen) harboring the d2EGFP gene (25 ng) (Clontech). One day post-transfection the media and ligand were replaced. Transfected cells were collected three days post-transfection for flow cytometry analysis.
Cell fluorescence analysis. Three days post-transfection, cells were trypsinized and subjected to flow cytometry analysis using the Cell Lab Quanta SC MPL (Beckman Coulter). Cells were first gated twice for (1) viability as assessed by electronic volume (EV) versus side scatter (SS) and (2) green fluorescence above autofluorescence to remove a nonfluorescent subpopulation.

Substance	Basal expression levels (%)	η (dynamic range)
S14: EGFP shRNA switch, smaller theophylline aptamer; Table I (pCS908) (CTCGATACCAGCCGAAAGGCCCTTGGCAGCGAGCTGACCCTGCTAGA)	14.3	2.86
S23: EGFP shRNA switch, smaller theophylline aptamer; Table I (pCS1061) (CTCGAGATACCAGCCGAAAGGCCCTTGGCAGCTCGAGCTGATCCTGCTAGA)	16.6	3.30
S12: EGFP shRNA switch with theophylline aptamer variant (shorter aptamer stem); Table I (pCS635) (CTCGAGATACCACCGAAAGGCCTTGGCAGCTCGGGCTGACCCTGACTAGA)	13.4	4.06
S18: EGFP shRNA switch, smaller theophylline aptamer; Table I (pCS942) (CTCGAGATACCAGCCGAAAGGCCCTTGGCAGCTCGAGCTGACCCTACTAGA)	19.5	3.89
S20: EGFP shRNA switch, smaller theophylline aptamer; Table I (pCS1002) (CTCGAGATACCAGCCGAAAGGCCCTTGGCAGCTCGGGCTGACCCTGAAGCTAGA)	49.8	1.75
S22: EGFP shRNA switch, smaller theophylline aptamer; Table I (pCS1004) (CTCGATACCAGCCGAAAGGCCCTTGGCAGCGAGCTGACCCTGAACTAGA)	35.0	2.73
S17: EGFP shRNA switch, smaller theophylline aptamer; Table I (pCS941) (CTCGAGATACCAGCCGAAAGGCCCTTGGCAGCTCGAGCTGACCCTGCTAGA)	17.5	3.12
S19: EGFP shRNA switch, smaller theophylline aptamer; Table I (pCS1001) (CTCGAGATACCAGCCGAAAGGCCCTTGGCAGCTCGGGCTGACCCTGAACTAGA)	38.3	2.38
S13: optimized EGFP shRNA switch, smaller theophylline aptamer; Table I (pCS911) (CTCGAGATACCAGCCGAAAGGCCCTTGGCAGCTCGGGCTGACCCTGCTAGA)	16.7	5.61
S16: EGFP shRNA switch, smaller theophylline aptamer; Table I (pCS910) (CTCGATACCAGCCGAAAGGCCCTTGGCAGCGAGCTGACCCTGACTAGA)	21.7	3.85
S25: EGFP shRNA switch, smaller theophylline aptamer; Table I (pCS1063) (CTCGAGATACCAGCCGAAAGGCCCTTGGCAGCTCGGGCTGATCCTGACTAGA)	11.8	2.63
S15: EGFP shRNA switch, smaller theophylline aptamer; Table I (pC5909) (CTCGATACCAGCCGAAAGGCCCTTGGCAGCGGGCTGACCCTGCTAGA)	11.2	2.56
S24: EGFP shRNA switch, smaller theophylline aptamer; Table I (PCS1062) (CTCGAGATACCAGCCGAAAGGCCCTTGGCAGCTCGGGCTGATCCTGCTAGA)	10.8	3.00
S21: EGFP shRNA switch, smaller theophylline aptamer; Table I (pCS1003) (CTCGAGATACCAGCCGAAAGGCCCTTGGCAGCTCGGGCTGACCCTGGCTAGA)	10.8	2.52
S11: EGFP shRNA switch with theophylline aptamer variant (shorter aptamer stem); Table I (pCS634) (CTCGAGATACCAGCCGAAAGGCCCTTGGCAGCTCGGGCTGACCCTGACTAGA)	20.0	4.20
